From article PMC7355430, “Imunofan—RDKVYR Peptide—Stimulates Skin Cell Proliferation and Promotes Tissue Repair” (Molecules, 2020)
Peptide text beside a SMILES is read from it.

Experiments:
[1] = Stability in human plasma; assay type: in vitro ADME; conditions: human plasma (EDTA)
Experimental: A stability test in plasma was performed as previously described. Blood was collected from healthy anonymous donors and EDTA was then used as an anticoagulant. The plasma was aliquoted and incubated with IM peptide for 1, 2, 3, 6, and 24 h at 37 °C, at a final concentration of 300 µM. The analyses were performed by HPLC applying the conditions specified above.
For calculations, peak areas were compared to a calibration curve calculated by LC solution Software (Shimadzu, Kyoto, Japan).

[2] = target: bovine albumin (Bos taurus, UniProt P02769); experiment: Affinity test on albumin-Sepharose column; assay type: binding; conditions: ammonium hydrogen carbonate pH 7.4, 2 h, 25 °C, elution 0.1% TFA, ESI-IT-TOF MS of fractions
Experimental: Immobilization of protein in a microcolumn, and affinity tests, were performed as described previously by Spodzieja et al.. The IM peptide was added onto an albumin-Sepharose column equilibrated in ammonium hydrogen carbonate, pH 7.4, and incubated for 2 h at 25 °C with gentle shaking. After 2 h, the column was washed with 100 mL of ammonium hydrogen carbonate, collecting the first and last milliliter of the solution (supernatant and last wash fraction). The albumin-peptide complex was dissociated by incubation for 15 min in 0.1% TFA, with gentle shaking. The procedure was repeated twice, and the elution fraction was collected each time. All fractions were lyophilized and analyzed by mass spectrometry (ESI-IT-TOF, Kyoto, Shimadzu Japan).

[3] = test system: ASCs; experiment: Migration assay, ibidi culture inserts; assay type: cell-based, human; conditions: 0.1 µg/mL, 24 h; n=16
Experimental: (§1) The effect of IM on cell migration after 24 h was determined using ibidi culture inserts (ibidi, Cat. No. 81176, Gräfelfing, Germany). Cells were seeded in culture inserts, at a density of 30,000 per well, in appropriate medium supplemented with 10% FBS, which was changed to serum-free DMEM after 24 h. Mitomycin C (5 μg/mL) was added for 2 h to block cell proliferation. The medium was then changed, again, and cells were stimulated with an appropriate concentration of IM. After 24 h the cells were fixed with 3.7% paraformaldehyde, stained with 0.05% crystal violet, and the effect was measured with a phase-contrast fluorescent microscope (Zeiss, Oberkochen, Germany) and the surface areas were counted with Imaging Software NIS-Element Basic Research program.

[4] = test system: HaCaT keratinocytes; experiment: Migration assay, ibidi culture inserts; assay type: cell-based, human; conditions: 0.1 and 1 µg/mL, 24 h, mitomycin C pre-treatment, serum-free; n=12 (Figure S7A)
Experimental: as §1

[5] = test system: skin cells; experiment: Migration assay, ibidi culture inserts; assay type: cell-based, human; conditions: 0.1 and 1 µg/mL, 24 h
Experimental: as §1

[6] = test system: dendritic cells (DC); experiment: Dendritic cell activation in PBMCs, flow cytometry; assay type: cell-based, human; conditions: 0.1 and 1.0 µg/mL, 48 h, active phenotype CD11+, CD80+, CD83+
Experimental: Immunological tests were conducted on human peripheral blood mononuclear cells, isolated from “buffy coats” using a ficoll density gradient (Histopaque, Sigma-Aldrich, St. Louis, MO, USA). Buffy coats for were obtained from blood of healthy anonymous donors of the Regional Center of Blood Donation and Blood Therapy in Gdansk, Poland. After washing in PBS, erythrocyte lysis, and cell counting (cell counter, Bio-Rad), the PBMCs were seeded onto a 24-well culture plate at a density of 10^6 cells/1 mL of RPMI 1640 (Penicillin/Streptomycin, 10% FBS) per well. After cell resting for 24 h, cells were stimulated with IM peptide (0.1 µg/mL and 1.0 µg/mL) for the next 48 h under appropriate conditions (37 °C, 5% CO2). The untreated cells were used as a negative control, whereas cells stimulated with LPS (1 µg/mL) and PHA (2.5 µg/mL) were a positive control. After incubation, the PBMCs were collected, washed with PBS, counted and prepared for flow cytometry analysis. 10^4 cells/100 µl were stained with monoclonal, fluorochrome-conjugated antibodies (anti-CD3, -CD4, -CD8, -CD16, -CD56, -CD25, -CD69, -CD71, -HLA-DR, -CD11c, -CD80, and -CD83) and incubated for 30 min in RT in the dark. Stained cells were analyzed using a flow cytometer (LSRFortessa, BD, USA). All data are presented as percentages due to the application of hospital diagnostic laboratory standards for immune cells analyses.

[7] = test system: basophils; experiment: Basophil activation test (BAT); assay type: cell-based, human; conditions: 0.1 µg/mL, whole blood of healthy volunteers, Flow CAST highsens; cut-off 5%; 7 independent experiments
Experimental: The commercially available test Flow CAST® highsens (Bühlmann Laboratories, Schönenbuch, Switzerland) was used to perform BAT test on blood samples collected from healthy volunteers, who were not suffering from allergy, within 24 h of collection, according to the manufacturer’s protocol. Then, 100 µL of blood was incubated and IM peptide was added to the wells at a final concentration of 0.1 µg/mL. The cells were then stained with fluorochrome-stained monoclonal antibodies (anti-CD63, -CD203c, -CCR3) and incubated for 15 min at 37 °C. Then, erythrocyte lysis was performed, the cells were washed and analyzed by flow cytometry (BD FACSCanto II, San Jose, CA, USA). Each sample was accompanied by its own negative and positive control (anti-FcεRI mAb and fMLP).

[8] = test system: MCF-7 breast cancer cells; experiment: MTT proliferation test; assay type: cell-based; conditions: 24, 48 or 72 h, RPMI-1640 with 10 % FBS; Mann Whitney U-test (Figure S12)
Experimental: (§2) Cancer cell prolifertion assay. Cell proliferation was determined by the MTT method. MTT test measures enzymatic activity, which is a marker of viable cells. Drop in amount of formazan informs that there is less metabolically active cells as compared with control (taken as 100%); however, it might be caused by cell cycle arrest (stopped or slowed proliferation) and/or cell death (which also may happen after prolonged incubation with tested compounds). T47D or MCF-7 breast cancer cells were cultured in RPMI-1640 supplemented with 10 % fetal bovine serum and 1 % penicillin/streptomycin solution. Cells were seeded, at a density of 2 x 10^3 per well, in a 96-well plate and allowed to attach overnight. The medium was replaced with fresh medium supplemented with desired concentrations of each investigated compound for 24, 48 or 72 h. Before the end of treatment, 25 µL of MTT solution (4 mg per ml-^1) were added to each well. After 3 h of incubation, medium was removed, and formazan crystals were dissolved in 100 µL of DMSO. Absorbance was measured at 570 nm (with reference wavelength 660 nm) in a Victor microplate reader. Data were obtained from at least three independent experiments performed in triplicate.

[9] = test system: T47D breast cancer cells; experiment: MTT proliferation test; assay type: cell-based; conditions: 48 or 72 h, RPMI-1640 with 10 % FBS; Mann Whitney U-test (Figure S11)
Experimental: as §2

[10] = test system: patients; design: method as in PMID 18475748; conditions: subcutaneous injection in patients, response to diphtheria toxoid vaccination; cited from earlier work

bovine albumin, sequence (P02769 25-607): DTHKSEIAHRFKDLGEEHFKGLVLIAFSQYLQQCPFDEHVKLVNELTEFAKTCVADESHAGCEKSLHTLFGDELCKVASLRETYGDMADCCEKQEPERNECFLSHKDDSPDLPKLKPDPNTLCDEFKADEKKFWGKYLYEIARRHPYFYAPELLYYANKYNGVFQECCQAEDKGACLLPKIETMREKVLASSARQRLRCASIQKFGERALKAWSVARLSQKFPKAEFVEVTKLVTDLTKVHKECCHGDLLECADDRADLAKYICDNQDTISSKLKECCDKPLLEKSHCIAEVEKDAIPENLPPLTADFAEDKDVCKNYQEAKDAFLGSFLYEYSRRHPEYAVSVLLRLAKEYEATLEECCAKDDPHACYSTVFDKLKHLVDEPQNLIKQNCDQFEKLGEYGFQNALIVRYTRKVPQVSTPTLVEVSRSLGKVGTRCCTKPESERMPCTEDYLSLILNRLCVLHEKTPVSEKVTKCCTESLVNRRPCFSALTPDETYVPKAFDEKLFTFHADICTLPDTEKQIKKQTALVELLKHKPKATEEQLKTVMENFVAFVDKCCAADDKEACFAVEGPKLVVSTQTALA

## CC(C)[C@H](NC(=O)[C@H](CCCCN)NC(=O)[C@H](CC(=O)O)NC(=O)[C@@H](N)CCCNC(=N)N)C(=O)N[C@@H](Cc1ccc(O)cc1)C(=O)N[C@@H](CCCNC(=N)N)C(=O)O [IM, H-Arg-Asp-Lys-Val-Tyr-Arg-OH] (H-RDKVYR-OH)
[1]; 300 µM, 37 °C, 1 h, albumins removed with ethanol and centrifugation, HPLC C18, PDA, n=3 (Figure S1)
  signal of the IM peptide in plasma after 1 h: no longer seen
[1]; mixture without incubation, whole sample preparation (ethanol, centrifugation), HPLC (Figure S2)
  signal of the IM peptide in plasma at time point 0 h: barely any signal of peptide
[2]
  interaction with albumin: interacted with bovine albumin
[3]
  promigratory effect compared to the control: 10–15%
[4]
  inhibition of migration compared to the control: 5–10%
[5]
  stimulation of migration of skin cells: does not stimulate migration
[6]
  activation of dendritic cells: not activated
[7]
  level of degranulated cells (basophil activation): below 5%
[8]
  difference in proliferation from control (MTT): not statistically significant
[9]
  difference in proliferation from control (MTT): not statistically significant
[10]
  levels of interleukin-6 (IL-6) and tumor necrosis factor (TNF): decreasing levels
